Measured values from PubChem BioAssay AID1963873 (Molecular Pharmacology Branch, DTP, NCI, 2024).

Tested on: 276233-004-R-J1-PDC KRAS spheroids with HUVEC/MSC, viability
Assay: Anticancer human tumor 276233-004-R-J1-PDC patient-derived colon adenocarcinoma cell line growth inhibition [KRAS2]
Conditions: for IC50: curve of first compound; for viability, T/C: stronger effect = lower value; active means viability on the fitted dose curve at most 10% of control; inactive means the rest
Summary of the method: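 Combination screen of spheroid viability in tumor-cell co-cultures with endothelial (HUVEC) and mesenchymal stem cell stroma. Each agent was tested in half-log dilutions, topping at clinical Cmax or at 10 microM without a known Cmax.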

[1] = second compound 0.1 µM, first compound 0.0316 µM
[2] = second compound 0.316 µM, first compound 0.0316 µM
[3] = second compound 1 µM, first compound 0.0316 µM
[4] = second compound 3.16 µM, first compound 0.0316 µM
[5] = second compound 10 µM, first compound 0.0316 µM
[6] = second compound 0.1 µM, first compound 0.1 µM
[7] = second compound 0.1 µM, first compound 0.316 µM
[8] = second compound 0.1 µM, first compound 1 µM
[9] = second compound 0.1 µM, first compound 3.16 µM
[10] = second compound 0.1 µM, first compound 10 µM
[11] = second compound 0.316 µM, first compound 0.1 µM
[12] = second compound 0.316 µM, first compound 0.316 µM
[13] = second compound 0.316 µM, first compound 1 µM
[14] = second compound 0.316 µM, first compound 3.16 µM
[15] = second compound 0.316 µM, first compound 10 µM
[16] = second compound 1 µM, first compound 0.1 µM
[17] = second compound 1 µM, first compound 0.316 µM
[18] = second compound 1 µM, first compound 1 µM
[19] = second compound 1 µM, first compound 3.16 µM
[20] = second compound 1 µM, first compound 10 µM
[21] = second compound 3.16 µM, first compound 0.1 µM
[22] = second compound 3.16 µM, first compound 0.316 µM
[23] = second compound 3.16 µM, first compound 1 µM
[24] = second compound 3.16 µM, first compound 3.16 µM
[25] = second compound 3.16 µM, first compound 10 µM
[26] = second compound 10 µM, first compound 0.1 µM
[27] = second compound 10 µM, first compound 0.316 µM
[28] = second compound 10 µM, first compound 1 µM
[29] = second compound 10 µM, first compound 3.16 µM
[30] = second compound 10 µM, first compound 10 µM
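Further: cells exposed to agents for seven days before viability read.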
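Wherever viability, T/C is given: 100% = DMSO vehicle control wells and lower values mean fewer viable cells.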

CC(=O)Nc1cccc(-n2c(=O)n(C3CC3)c(=O)c3c(Nc4ccc(I)cc4F)n(C)c(=O)c(C)c32)c1 + CNCc1ccccc1-c1csc(C(C)Nc2nc(C)nc3cc(OC)c(OC)cc23)c1
< 0.1 nM: IC50 (second compound 3.16 µM) | IC50 (second compound 10 µM)
1.42 nM: IC50 (second compound 1 µM)
active: viability, T/C (second compound 3.16 µM, first compound 0.0001 µM) 5.56% | viability, T/C (second compound 3.16 µM, first compound 0.000316 µM) 0.89% | viability, T/C (second compound 3.16 µM, first compound 0.001 µM) 3.86% | viability, T/C (second compound 3.16 µM, first compound 0.00316 µM) 1.97% | viability, T/C (second compound 3.16 µM, first compound 0.01 µM) 0.56% | viability, T/C [4] 0.49% | viability, T/C (second compound 10 µM, first compound 0.0001 µM) 0.21% | viability, T/C (second compound 10 µM, first compound 0.000316 µM) 2.92% | viability, T/C (second compound 10 µM, first compound 0.001 µM) 4.6% | viability, T/C (second compound 10 µM, first compound 0.00316 µM) 3.3% | viability, T/C (second compound 10 µM, first compound 0.01 µM) 0.22% | viability, T/C [5] 3.97%
4.86 nM: IC50 (second compound 0.316 µM)
inactive: viability, T/C (second compound 0.1 µM, first compound 0.0001 µM) 97.3% | viability, T/C (second compound 0.1 µM, first compound 0.000316 µM) 77.5% | viability, T/C (second compound 0.1 µM, first compound 0.001 µM) 90.5% | viability, T/C (second compound 0.1 µM, first compound 0.00316 µM) 59.2% | viability, T/C (second compound 0.1 µM, first compound 0.01 µM) 40.1% | viability, T/C [1] 15.5% | viability, T/C (second compound 0.316 µM, first compound 0.0001 µM) 93.5% | viability, T/C (second compound 0.316 µM, first compound 0.000316 µM) 82.1% | viability, T/C (second compound 0.316 µM, first compound 0.001 µM) 83.7% | viability, T/C (second compound 0.316 µM, first compound 0.00316 µM) 57% | viability, T/C (second compound 0.316 µM, first compound 0.01 µM) 35.2% | viability, T/C [2] 17.3% | viability, T/C (second compound 1 µM, first compound 0.0001 µM) 69.4% | viability, T/C (second compound 1 µM, first compound 0.000316 µM) 56.5% | viability, T/C (second compound 1 µM, first compound 0.001 µM) 61.1% | viability, T/C (second compound 1 µM, first compound 0.00316 µM) 27.6% | viability, T/C (second compound 1 µM, first compound 0.01 µM) 23.1% | viability, T/C [3] 9.49%
5.93 nM: IC50 (second compound 0.1 µM)

CC1OCC2(CCN(c3cnc(Sc4ccnc(N)c4Cl)c(N)n3)CC2)C1N (stereo not given) + CNCc1ccccc1-c1csc(C(C)Nc2nc(C)nc3cc(OC)c(OC)cc23)c1
active: viability, T/C [4] 0.87% | viability, T/C [21] 0.85% | viability, T/C [22] 1.57% | viability, T/C [23] 2.11% | viability, T/C [24] 0.56% | viability, T/C [25] 3.18% | viability, T/C [5] 1.45% | viability, T/C [26] 3.57% | viability, T/C [27] 0.22% | viability, T/C [28] 0.25% | viability, T/C [29] 0.32% | viability, T/C [30] 5.87%
< 31.6 nM: IC50 (second compound 3.16 µM) | IC50 (second compound 10 µM)
392 nM: IC50 (second compound 1 µM)
inactive: viability, T/C [1] 73.8% | viability, T/C [6] 101% | viability, T/C [7] 66.1% | viability, T/C [8] 82% | viability, T/C [9] 73.3% | viability, T/C [10] 59% | viability, T/C [2] 92.8% | viability, T/C [11] 90.2% | viability, T/C [12] 68.6% | viability, T/C [13] 60.9% | viability, T/C [14] 66% | viability, T/C [15] 46.5% | viability, T/C [3] 88.9% | viability, T/C [16] 84.1% | viability, T/C [17] 50.8% | viability, T/C [18] 50% | viability, T/C [19] 50.3% | viability, T/C [20] 34.5%
> 10000 nM: IC50 (second compound 0.1 µM) | IC50 (second compound 0.316 µM)

CC1(C)CCC(CN2CCN(c3ccc(C(=O)NS(=O)(=O)c4ccc(NCC5CCOCC5)c([N+](=O)[O-])c4)c(Oc4cnc5[nH]ccc5c4)c3)CC2)=C(c2ccc(Cl)cc2)C1 + CC1OCC2(CCN(c3cnc(Sc4ccnc(N)c4Cl)c(N)n3)CC2)C1N
2570 nM: IC50 (second compound 3.16 µM)
5970 nM: IC50 (second compound 0.316 µM)
3180 nM: IC50 (second compound 1 µM)
> 10000 nM: IC50 (second compound 0.1 µM)
3200 nM: IC50 (second compound 10 µM)
inactive: viability, T/C [1] 78.6% | viability, T/C [6] 91.9% | viability, T/C [7] 72.4% | viability, T/C [8] 116% | viability, T/C [9] 74.8% | viability, T/C [10] 54.9% | viability, T/C [2] 89.7% | viability, T/C [11] 77.9% | viability, T/C [12] 89.2% | viability, T/C [13] 81% | viability, T/C [14] 63.7% | viability, T/C [15] 39% | viability, T/C [3] 67.3% | viability, T/C [16] 75% | viability, T/C [17] 85.7% | viability, T/C [18] 62.3% | viability, T/C [19] 51.6% | viability, T/C [20] 27.2% | viability, T/C [4] 69.1% | viability, T/C [21] 62.6% | viability, T/C [22] 77.5% | viability, T/C [23] 81.1% | viability, T/C [24] 45% | viability, T/C [25] 24.8% | viability, T/C [5] 60.1% | viability, T/C [26] 72% | viability, T/C [27] 65.8% | viability, T/C [28] 72.7% | viability, T/C [29] 50.4% | viability, T/C [30] 14.4%

CC(C)NCC(C(=O)N1CCN(c2ncnc3c2C(C)CC3O)CC1)c1ccc(Cl)cc1 (stereo not given) + COc1cc2nc(C)nc(NC(C)c3cc(N)cc(C(F)(F)F)c3)c2cc1OC1CCOC1
inactive: viability, T/C [1] 75.5% | viability, T/C [6] 79.9% | viability, T/C [7] 73.6% | viability, T/C [8] 56.6% | viability, T/C [9] 35.8% | viability, T/C [10] 51.2% | viability, T/C [2] 89.3% | viability, T/C [11] 78.6% | viability, T/C [12] 62.7% | viability, T/C [13] 57.8% | viability, T/C [14] 32.6% | viability, T/C [15] 38.8% | viability, T/C [3] 67.4% | viability, T/C [16] 76.3% | viability, T/C [17] 70.3% | viability, T/C [18] 55.4% | viability, T/C [19] 26.2% | viability, T/C [20] 27.4% | viability, T/C [4] 80.7% | viability, T/C [21] 75.6% | viability, T/C [22] 78.2% | viability, T/C [23] 37.3% | viability, T/C [24] 29.9% | viability, T/C [25] 38.8% | viability, T/C [5] 35.6% | viability, T/C [26] 16.1% | viability, T/C [27] 13.9%
1110 nM: IC50 (second compound 0.316 µM)
700 nM: IC50 (second compound 3.16 µM)
1240 nM: IC50 (second compound 1 µM)
1780 nM: IC50 (second compound 0.1 µM)
< 31.6 nM: IC50 (second compound 10 µM)
active: viability, T/C [28] 7.24% | viability, T/C [29] 4.57% | viability, T/C [30] 6.8%

COc1cc2nccc(Oc3ccc(NC(=O)C4(C(=O)Nc5ccc(F)cc5)CC4)cc3)c2cc1OC + COc1cc2nc(C)nc(NC(C)c3cc(N)cc(C(F)(F)F)c3)c2cc1OC1CCOC1
inactive: viability, T/C [1] 74.9% | viability, T/C [6] 98.7% | viability, T/C [7] 87.2% | viability, T/C [8] 92% | viability, T/C [9] 78.9% | viability, T/C [10] 98.8% | viability, T/C [2] 85.9% | viability, T/C [11] 80.8% | viability, T/C [12] 111% | viability, T/C [13] 99.7% | viability, T/C [14] 79.3% | viability, T/C [15] 101% | viability, T/C [3] 84.7% | viability, T/C [16] 85.7% | viability, T/C [17] 88.6% | viability, T/C [18] 71.4% | viability, T/C [19] 60.2% | viability, T/C [20] 110% | viability, T/C [4] 75.8% | viability, T/C [21] 81.1% | viability, T/C [22] 103% | viability, T/C [23] 60.8% | viability, T/C [24] 44.2% | viability, T/C [25] 98.3% | viability, T/C [5] 22.5% | viability, T/C [26] 17.7% | viability, T/C [27] 19.5% | viability, T/C [28] 11.5% | viability, T/C [29] 1.3% | viability, T/C [30] 26.8%
> 10000 nM: IC50 (second compound 0.1 µM) | IC50 (second compound 0.316 µM) | IC50 (second compound 1 µM) | IC50 (second compound 3.16 µM)
< 31.6 nM: IC50 (second compound 10 µM)

CCNC(=O)CC1N=C(c2ccc(Cl)cc2)c2cc(OC)ccc2-n2c(C)nnc21 (stereo not given) + CNCc1ccccc1-c1csc(C(C)Nc2nc(C)nc3cc(OC)c(OC)cc23)c1
inactive: viability, T/C [1] 86.7% | viability, T/C [6] 84.3% | viability, T/C [7] 68.2% | viability, T/C [8] 68.3% | viability, T/C [9] 72.8% | viability, T/C [10] 54.4% | viability, T/C [2] 88.2% | viability, T/C [11] 82.8% | viability, T/C [12] 85.5% | viability, T/C [13] 73.5% | viability, T/C [14] 72.7% | viability, T/C [15] 67.1% | viability, T/C [3] 87.3% | viability, T/C [16] 71.2% | viability, T/C [17] 67.2% | viability, T/C [18] 61% | viability, T/C [19] 56.8% | viability, T/C [20] 66.3%
< 31.6 nM: IC50 (second compound 3.16 µM) | IC50 (second compound 10 µM)
> 10000 nM: IC50 (second compound 0.1 µM) | IC50 (second compound 0.316 µM) | IC50 (second compound 1 µM)
active: viability, T/C [4] 0.46% | viability, T/C [21] 0.86% | viability, T/C [22] 2.72% | viability, T/C [23] 0.85% | viability, T/C [24] 2.19% | viability, T/C [25] 1.93% | viability, T/C [5] 0.24% | viability, T/C [26] 1.77% | viability, T/C [27] 0.22% | viability, T/C [28] 0.26% | viability, T/C [29] 0.43% | viability, T/C [30] 0.23%
